Test results as given in the supplement of paper PMC10307832.

Experiments:
Assay in all cases: relative viability (nuclei count vs DMSO), 5 days (fraction); higher = more cells survive
[1] = compound: Cc1ccc2nc(NCCN)c3ncc(C)n3c2c1 + COc1cc2c(Oc3ccc(NC(=O)C4(C(=O)Nc5ccc(F)cc5)CC4)cc3F)ccnc2cc1OCCCN1CCOCC1 [Foretinib] (partner 0.25 µM)
Method in brief: (§1)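 Cells from lung cancer lines were seeded into 1536-well plates and, one day later, dosed by pin tool. Treatments were either a single drug or a fixed dose of an anchor drug with five library-drug doses (not always all listed) in √10 steps. After 5 days, nuclei were stained in a one-step fixation (final 0.05% Triton X-100, 1% formaldehyde, 1 ug/ml Hoechst) and counted on 4× images, and relative viability is the treated-to-vehicle nuclei ratio, as the median of duplicate plates.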

[2] = compound: Cc1ccc2nc(NCCN)c3ncc(C)n3c2c1 + CS(=O)(=O)N1CCN(Cc2cc3nc(-c4cccc5[nH]ncc45)nc(N4CCOCC4)c3s2)CC1 [Pictilisib] (partner 1 µM)
Method in brief: as §1

Salubrinal + Olaparib = compound: O=C(/C=C/c1ccccc1)NC(NC(=S)Nc1cccc2cccnc12)C(Cl)(Cl)Cl [Salubrinal] + O=C(c1cc(Cc2n[nH]c(=O)c3ccccc23)ccc1F)N1CCN(C(=O)C2CC2)CC1 [Olaparib] (partner 8 µM)
Method in brief: as §1

Salubrinal + Tozasertib = compound: O=C(/C=C/c1ccccc1)NC(NC(=S)Nc1cccc2cccnc12)C(Cl)(Cl)Cl [Salubrinal] + Cc1cc(Nc2cc(N3CCN(C)CC3)nc(Sc3ccc(NC(=O)C4CC4)cc3)n2)n[nH]1 [Tozasertib] (partner 0.1 µM)
Method in brief: as §1

201T
relative viability ([1]; first compound 0.04 µM): 1.07
relative viability ([1]; first compound 0.1265 µM): 1.13
relative viability ([1]; first compound 0.4 µM): 1.1
relative viability ([1]; first compound 1.265 µM): 1.1
relative viability ([1]; first compound 4 µM): 1.05
relative viability ([2]; first compound 0.04 µM): 0.701
relative viability ([2]; first compound 0.1265 µM): 0.716
relative viability ([2]; first compound 0.4 µM): 0.639
relative viability ([2]; first compound 1.265 µM): 0.66
relative viability ([2]; first compound 4 µM): 0.652
relative viability (Salubrinal + Olaparib; first compound 0.08 µM): 0.866
relative viability (Salubrinal + Olaparib; first compound 0.253 µM): 0.61
relative viability (Salubrinal + Olaparib; first compound 0.8 µM): 0.861
relative viability (Salubrinal + Olaparib; first compound 2.53 µM): 0.809
relative viability (Salubrinal + Olaparib; first compound 8 µM): 0.824
relative viability (Salubrinal + Tozasertib; first compound 0.08 µM): 0.873
relative viability (Salubrinal + Tozasertib; first compound 0.253 µM): 0.837
relative viability (Salubrinal + Tozasertib; first compound 0.8 µM): 0.933
relative viability (Salubrinal + Tozasertib; first compound 2.53 µM): 0.98
relative viability (Salubrinal + Tozasertib; first compound 8 µM): 0.967

A549
relative viability ([1]; first compound 0.04 µM): 1.08
relative viability ([1]; first compound 0.1265 µM): 0.85
relative viability ([1]; first compound 0.4 µM): 0.975
relative viability ([1]; first compound 1.265 µM): 0.921
relative viability ([1]; first compound 4 µM): 0.855
relative viability ([2]; first compound 0.04 µM): 0.587
relative viability ([2]; first compound 0.1265 µM): 0.439
relative viability ([2]; first compound 0.4 µM): 0.451
relative viability ([2]; first compound 1.265 µM): 0.451
relative viability ([2]; first compound 4 µM): 0.345
relative viability (Salubrinal + Olaparib; first compound 0.08 µM): 0.226
relative viability (Salubrinal + Olaparib; first compound 0.253 µM): 0.344
relative viability (Salubrinal + Olaparib; first compound 0.8 µM): 0.438
relative viability (Salubrinal + Olaparib; first compound 2.53 µM): 0.31
relative viability (Salubrinal + Olaparib; first compound 8 µM): 0.287

A-427
relative viability ([1]; first compound 0.04 µM): 1.09
relative viability ([1]; first compound 0.1265 µM): 1.03
relative viability ([1]; first compound 0.4 µM): 0.962
relative viability ([1]; first compound 1.265 µM): 1
relative viability ([1]; first compound 4 µM): 0.948
relative viability ([2]; first compound 0.04 µM): 0.743
relative viability ([2]; first compound 0.1265 µM): 0.653
relative viability ([2]; first compound 0.4 µM): 0.596
relative viability ([2]; first compound 1.265 µM): 0.691
relative viability ([2]; first compound 4 µM): 0.702
relative viability (Salubrinal + Olaparib; first compound 0.08 µM): 0.751
relative viability (Salubrinal + Olaparib; first compound 0.253 µM): 0.7
relative viability (Salubrinal + Olaparib; first compound 0.8 µM): 0.793
relative viability (Salubrinal + Olaparib; first compound 2.53 µM): 0.682
relative viability (Salubrinal + Olaparib; first compound 8 µM): 0.744
relative viability (Salubrinal + Tozasertib; first compound 0.08 µM): 0.22
relative viability (Salubrinal + Tozasertib; first compound 0.253 µM): 0.226
relative viability (Salubrinal + Tozasertib; first compound 0.8 µM): 0.227
relative viability (Salubrinal + Tozasertib; first compound 2.53 µM): 0.227
relative viability (Salubrinal + Tozasertib; first compound 8 µM): 0.21

ABC-1
relative viability ([1]; first compound 0.04 µM): 1.22
relative viability ([1]; first compound 0.1265 µM): 1.05
relative viability ([1]; first compound 0.4 µM): 1.09
relative viability ([1]; first compound 1.265 µM): 0.839
relative viability ([1]; first compound 4 µM): 1.01
relative viability ([2]; first compound 0.04 µM): 0.721
relative viability ([2]; first compound 0.1265 µM): 0.78
relative viability ([2]; first compound 0.4 µM): 0.822
relative viability ([2]; first compound 1.265 µM): 0.813
relative viability ([2]; first compound 4 µM): 0.678
relative viability (Salubrinal + Olaparib; first compound 0.08 µM): 0.831
relative viability (Salubrinal + Olaparib; first compound 0.253 µM): 0.67
relative viability (Salubrinal + Olaparib; first compound 0.8 µM): 0.741
relative viability (Salubrinal + Olaparib; first compound 2.53 µM): 0.633
relative viability (Salubrinal + Olaparib; first compound 8 µM): 0.8
relative viability (Salubrinal + Tozasertib; first compound 0.08 µM): 0.168
relative viability (Salubrinal + Tozasertib; first compound 0.253 µM): 0.185
relative viability (Salubrinal + Tozasertib; first compound 0.8 µM): 0.194
relative viability (Salubrinal + Tozasertib; first compound 2.53 µM): 0.183
relative viability (Salubrinal + Tozasertib; first compound 8 µM): 0.206

BEN
relative viability ([1]; first compound 0.04 µM): 0.82
relative viability ([1]; first compound 0.1265 µM): 0.86
relative viability ([1]; first compound 0.4 µM): 0.657
relative viability ([1]; first compound 1.265 µM): 0.788
relative viability ([1]; first compound 4 µM): 0.752
relative viability ([2]; first compound 0.04 µM): 0.628
relative viability ([2]; first compound 0.1265 µM): 0.584
relative viability ([2]; first compound 0.4 µM): 0.596
relative viability ([2]; first compound 1.265 µM): 0.481
relative viability ([2]; first compound 4 µM): 0.556
relative viability (Salubrinal + Olaparib; first compound 0.08 µM): 1.33
relative viability (Salubrinal + Olaparib; first compound 0.253 µM): 0.935
relative viability (Salubrinal + Olaparib; first compound 0.8 µM): 1.16
relative viability (Salubrinal + Olaparib; first compound 2.53 µM): 1.04
relative viability (Salubrinal + Olaparib; first compound 8 µM): 0.943
relative viability (Salubrinal + Tozasertib; first compound 0.253 µM): 0.689
relative viability (Salubrinal + Tozasertib; first compound 0.8 µM): 0.718
relative viability (Salubrinal + Tozasertib; first compound 2.53 µM): 0.479
relative viability (Salubrinal + Tozasertib; first compound 8 µM): 0.471

CAL-12T
relative viability ([1]; first compound 0.04 µM): 1.14
relative viability ([1]; first compound 0.1265 µM): 0.967
relative viability ([1]; first compound 0.4 µM): 1.13
relative viability ([1]; first compound 1.265 µM): 1.14
relative viability ([1]; first compound 4 µM): 0.97
relative viability ([2]; first compound 0.04 µM): 0.521
relative viability ([2]; first compound 0.1265 µM): 0.517
relative viability ([2]; first compound 0.4 µM): 0.389
relative viability ([2]; first compound 1.265 µM): 0.364
relative viability ([2]; first compound 4 µM): 0.232
relative viability (Salubrinal + Olaparib; first compound 0.08 µM): 0.7
relative viability (Salubrinal + Olaparib; first compound 0.253 µM): 0.711
relative viability (Salubrinal + Olaparib; first compound 0.8 µM): 0.751
relative viability (Salubrinal + Olaparib; first compound 2.53 µM): 0.725
relative viability (Salubrinal + Olaparib; first compound 8 µM): 0.648
relative viability (Salubrinal + Tozasertib; first compound 0.08 µM): 0.32
relative viability (Salubrinal + Tozasertib; first compound 0.253 µM): 0.279
relative viability (Salubrinal + Tozasertib; first compound 0.8 µM): 0.323
relative viability (Salubrinal + Tozasertib; first compound 2.53 µM): 0.241
relative viability (Salubrinal + Tozasertib; first compound 8 µM): 0.241

COR-L23
relative viability ([1]; first compound 0.04 µM): 0.966
relative viability ([1]; first compound 0.1265 µM): 0.915
relative viability ([1]; first compound 0.4 µM): 0.938
relative viability ([1]; first compound 1.265 µM): 1.01
relative viability ([1]; first compound 4 µM): 0.865
relative viability ([2]; first compound 0.04 µM): 0.866
relative viability ([2]; first compound 0.1265 µM): 0.7
relative viability ([2]; first compound 0.4 µM): 0.741
relative viability ([2]; first compound 1.265 µM): 0.85
relative viability ([2]; first compound 4 µM): 0.741
relative viability (Salubrinal + Olaparib; first compound 0.08 µM): 0.392
relative viability (Salubrinal + Olaparib; first compound 0.253 µM): 0.323
relative viability (Salubrinal + Olaparib; first compound 0.8 µM): 0.355
relative viability (Salubrinal + Olaparib; first compound 2.53 µM): 0.315
relative viability (Salubrinal + Olaparib; first compound 8 µM): 0.325
relative viability (Salubrinal + Tozasertib; first compound 0.08 µM): 0.191
relative viability (Salubrinal + Tozasertib; first compound 0.253 µM): 0.185
relative viability (Salubrinal + Tozasertib; first compound 0.8 µM): 0.194
relative viability (Salubrinal + Tozasertib; first compound 2.53 µM): 0.168
relative viability (Salubrinal + Tozasertib; first compound 8 µM): 0.145

COR-L 105
relative viability ([1]; first compound 0.04 µM): 1.18
relative viability ([1]; first compound 0.1265 µM): 0.995
relative viability ([1]; first compound 0.4 µM): 0.86
relative viability ([1]; first compound 1.265 µM): 0.987
relative viability ([1]; first compound 4 µM): 1.15
relative viability ([2]; first compound 0.04 µM): 0.507
relative viability ([2]; first compound 0.1265 µM): 0.399
relative viability ([2]; first compound 0.4 µM): 0.422
relative viability ([2]; first compound 1.265 µM): 0.468
relative viability ([2]; first compound 4 µM): 0.31
relative viability (Salubrinal + Olaparib; first compound 0.08 µM): 0.617
relative viability (Salubrinal + Olaparib; first compound 0.253 µM): 0.732
relative viability (Salubrinal + Olaparib; first compound 0.8 µM): 0.592
relative viability (Salubrinal + Olaparib; first compound 2.53 µM): 0.662
relative viability (Salubrinal + Olaparib; first compound 8 µM): 0.587
relative viability (Salubrinal + Tozasertib; first compound 0.08 µM): 0.665
relative viability (Salubrinal + Tozasertib; first compound 0.253 µM): 0.37
relative viability (Salubrinal + Tozasertib; first compound 0.8 µM): 0.312
relative viability (Salubrinal + Tozasertib; first compound 2.53 µM): 0.335
relative viability (Salubrinal + Tozasertib; first compound 8 µM): 0.328
